Test results as given in patent publication US11472808B2, “Substituted pyrrolo[1,2-c]pyrimidines as hepatitis B antiviral agents” (Enanta Pharmaceuticals, Inc., priority 2019, dated 2022).

test system: HBV; assay: HepAD38 anti-HBV assay: reduction of viral product accumulation (virion DNA qPCR, HBsAg/HBeAg ELISA); type: cell-based; conditions: Hepatitis B virus, 120 h; HepAD38 cells; concentration reducing viral product accumulation by 50% relative to no drug controls; harvest five days after compound addition; read-out: HepAD38 EC50
Description: Methods: HepAD38 cells are maintained as previously reported (Ladner et al, Antimicrob. Agents Chemother. 1997, […], 1715). Briefly, cells are passaged upon attaining confluency in DMEM/F12 media in the presence of 10% FBS, Penn/Strep, 250 μg/mL G418, and 1 μg/ml tetracycline. Novel compounds are screened by first washing cells three times with PBS to remove tetracycline, and plating in 96 well plates at 35,000 cells/well. Compounds dissolved in DMSO are then diluted 1:200 into wells containing cells. Five days after compound addition, material is harvested for analysis. For an extended 8 day analysis, cells are plated and treated as described above, but media and compound are refreshed on d2 and d5 post initial treatment.
On harvest day, virion DNA is obtained by lysing with Sidestep Lysis and Stabilization Buffer and then quantified via quantitative real time PCR. Commercially available ELISA kits are used to quantitate the viral proteins HBsAg (Alpco) or HbeAg (US Biological) by following the manufacturer's recommended protocol after diluting samples to match the linear range of their respective assays. Irrespective of readout, compound concentrations that reduce viral product accumulation in the cell lysates or supernatants by 50% relative to no drug controls (EC50) are reported; EC50 ranges are as follows: A<0.1 μM; B 0.1-0.4 μM; C>0.4 μM.

| SMILES | EC50 |
| --- | --- |
| O[C@@]1(Cn2cccn2)CC2=C(c3ccn(C(F)F)n3)[C@H](c3ccc(F)cc3Cl)N=C(c3nccs3)N2C1 [Example 121] | > 400 nM |
| COC(=O)c1ccc(S(=O)(=O)NCC2(F)CC3=C(c4ccn(C(F)F)n4)[C@H](c4ccc(F)cc4Cl)N=C(c4nccs4)N3C2)cc1 (stereo partly shown) [Example 191] | > 400 nM |
| O=C(O)[C@H]1C[C@H](S(=O)(=O)N[C@H]2CC3=C(c4ccn(C(F)F)n4)[C@H](c4ccc(F)cc4Cl)N=C(c4nccs4)N3C2)C1 [Example 16] | > 400 nM |
| CCOC(=O)C1CCN(CCS(=O)(=O)N[C@H]2CC3=C(c4ccn(C(F)F)n4)[C@H](c4ccc(F)cc4Cl)N=C(c4nccs4)N3C2)CC1 [Example 58] | 100 to 400 nM |
| O[C@]1(CCl)CC2=C(c3ccn(C(F)F)n3)[C@H](c3ccc(F)cc3Cl)N=C(c3nccs3)N2C1 [Example 125] | < 100 nM |
| O=C(N[C@H]1CC2=C(c3ccn(C(F)F)n3)[C@H](c3ccc(F)cc3Cl)N=C(c3nccs3)N2C1)N1CCC(O)(c2ncco2)CC1 [Example 245] | 100 to 400 nM |
| C[C@@H](NC(=O)CC1(S(=O)(=O)N[C@H]2CC3=C(c4ccn(C(F)F)n4)[C@H](c4ccc(F)cc4Cl)N=C(c4nccs4)N3C2)CC1)c1ccccn1 [Example 373] | < 100 nM |
| O=C(N[C@H]1CC2=C(c3ccn(C(F)F)n3)[C@H](c3ccc(F)cc3Cl)N=C(c3nccs3)N2C1)N1CCN(S(=O)(=O)c2ccccc2)CC1 [Example 228] | > 400 nM |
| O=S(=O)(Nc1ccccc1)N[C@H]1CC2=C(c3ccn(C(F)F)n3)[C@H](c3ccc(F)cc3Cl)N=C(c3nccs3)N2C1 [Example 82] | 100 to 400 nM |
| COC(=O)CC1CCN(C(=O)CC2CCN(CCS(=O)(=O)N[C@H]3CC4=C(c5ccn(C(F)F)n5)[C@H](c5ccc(F)cc5Cl)N=C(c5nccs5)N4C3)CC2)CC1 [Example 62] | < 100 nM |
| O=C(N[C@H]1CC2=C(c3ccn(C(F)F)n3)[C@H](c3ccc(F)cc3Cl)N=C(c3nccs3)N2C1)N1CCC[C@@H](O)C1 [Example 223] | 100 to 400 nM |
| O=S(=O)(N[C@H]1CC2=C(c3ccn(C(F)F)n3)[C@H](c3ccc(F)cc3Cl)N=C(c3nccs3)N2C1)c1ccc2ncsc2c1 [Example 398] | < 100 nM |
| COC[C@]1(O)CC2=C(c3ccn(C(F)F)n3)[C@H](c3ccc(F)cc3Cl)N=C(c3nccs3)N2C1 [Example 107] | > 400 nM |
| COC(=O)C1CCCN1CCS(=O)(=O)N[C@H]1CC2=C(c3ccn(C(F)F)n3)[C@H](c3ccc(F)cc3Cl)N=C(c3nccs3)N2C1 (stereo partly shown) [Example 60] | > 400 nM |
| O=S(=O)(N[C@H]1CC2=C(c3ccn(C(F)F)n3)[C@H](c3ccc(F)cc3Cl)N=C(c3nccs3)N2C1)N1C[C@H](O)[C@@H](O)C1 [Example 101] | < 100 nM |
| CC(C)(C)OC(=O)Nc1cccc(S(=O)(=O)N[C@H]2CC3=C(c4ccn(C(F)F)n4)[C@H](c4ccc(F)cc4Cl)N=C(c4nccs4)N3C2)n1 [Example 382] | 100 to 400 nM |
| O=C(N[C@H]1CC2=C(c3ccn(C(F)F)n3)[C@H](c3ccc(F)cc3Cl)N=C(c3nccs3)N2C1)N1CCCC1 [Example 209] | < 100 nM |
| O=S(=O)(N[C@H]1CC2=C(c3ccn(C(F)F)n3)[C@H](c3ccc(F)cc3Cl)N=C(c3nccs3)N2C1)[C@H]1C[C@H]1c1ccccn1 [Example 391] | 100 to 400 nM |
| O=C(N[C@H]1CC2=C(c3ccn(C(F)F)n3)[C@H](c3ccc(F)cc3Cl)N=C(c3nccs3)N2C1)c1cccc(C2CC2)n1 [Example 248] | > 400 nM |
| Cc1ccc(S(=O)(=O)N2CCN([C@H]3CC4=C(c5ccn(C(F)F)n5)[C@H](c5ccc(F)cc5Cl)N=C(c5nccs5)N4C3)CC2)cc1 [Example 44] | > 400 nM |
| O=C(O)CC1CCN(C(=O)CC2CCN(CCS(=O)(=O)N[C@H]3CC4=C(c5ccn(C(F)F)n5)[C@H](c5ccc(F)cc5Cl)N=C(c5nccs5)N4C3)CC2)CC1 [Example 64] | > 400 nM |
| CC(C)(NS(=O)(=O)N[C@H]1CC2=C(c3ccn(C(F)F)n3)[C@H](c3ccc(F)cc3Cl)N=C(c3nccs3)N2C1)c1ccccn1 [Example 318] | < 100 nM |
| O=S(=O)(N[C@H]1CC2=C(c3ccn(C(F)F)n3)[C@H](c3ccc(F)cc3Cl)N=C(c3nccs3)N2C1)c1cc(F)cc(F)c1 [Example 407] | 100 to 400 nM |
| COC(=O)N1CCN(S(=O)(=O)N[C@H]2CC3=C(c4ccn(C(F)F)n4)[C@H](c4ccc(F)cc4Cl)N=C(c4nccs4)N3C2)CC1 [Example 152] | < 100 nM |
| C#CCNC[C@]1(O)CC2=C(c3ccn(C(F)F)n3)[C@H](c3ccc(F)cc3Cl)N=C(c3nccs3)N2C1 [Example 115] | > 400 nM |
| O=C(N[C@H]1CC2=C(c3ccn(C(F)F)n3)[C@H](c3ccc(F)cc3Cl)N=C(c3nccs3)N2C1)N1C[C@H](O)[C@@H](O)C1 [Example 230] | 100 to 400 nM |

| SMILES | EC50 |
| --- | --- |
| O=C(O)c1ccc(S(=O)(=O)NCC2(F)CC3=C(c4ccn(C(F)F)n4)[C@H](c4ccc(F)cc4Cl)N=C(c4nccs4)N3C2)cc1 (stereo partly shown) [Example 192] | > 400 nM |
| COC(=O)Cc1ccc(S(=O)(=O)N[C@H]2CC3=C(c4ccn(C(F)F)n4)[C@H](c4ccc(F)cc4Cl)N=C(c4nccs4)N3C2)cc1 [Example 35] | < 100 nM |
| COC(=O)c1ccccc1CS(=O)(=O)N[C@H]1CC2=C(c3ccn(C(F)F)n3)[C@H](c3ccc(F)cc3Cl)N=C(c3nccs3)N2C1 [Example 22] | 100 to 400 nM |
| N#CCCCS(=O)(=O)N([C@H]1CC2=C(c3ccn(C(F)F)n3)[C@H](c3ccc(F)cc3Cl)N=C(c3nccs3)N2C1)S(=O)(=O)CCCC#N [Example 136] | 100 to 400 nM |
| C=CCOC[C@]1(O)CC2=C(c3ccn(C(F)F)n3)[C@H](c3ccc(F)cc3Cl)N=C(c3nccs3)N2C1 [Example 108] | 100 to 400 nM |
| O=C(O)[C@H]1C[C@@H](S(=O)(=O)N[C@H]2CC3=C(c4ccn(C(F)F)n4)[C@H](c4ccc(F)cc4Cl)N=C(c4nccs4)N3C2)C1 [Example 17] | 100 to 400 nM |
| C#CCN1CCN([C@H]2CC3=C(c4ccn(C(F)F)n4)[C@H](c4ccc(F)cc4Cl)N=C(c4nccs4)N3C2)C1=O [Example 41] | 100 to 400 nM |
| C#CC1(O)CCN(S(=O)(=O)N[C@H]2CC3=C(c4ccn(C(F)F)n4)[C@H](c4ccc(F)cc4Cl)N=C(c4cccs4)N3C2)CC1 [Example 265] | < 100 nM |
| O=C(N[C@H]1CC2=C(c3ccn(C(F)F)n3)[C@H](c3ccc(F)cc3Cl)N=C(c3nccs3)N2C1)OC1CCCC1 [Example 252] | > 400 nM |
| CC1CCC(C)N1S(=O)(=O)N[C@H]1CC2=C(c3ccn(C(F)F)n3)[C@H](c3ccc(F)cc3Cl)N=C(c3nccs3)N2C1 (stereo partly shown) [Example 291] | < 100 nM |
| O=C1NCCN1[C@H]1CC2=C(c3ccn(C(F)F)n3)[C@H](c3ccc(F)cc3Cl)N=C(c3nccs3)N2C1 [Example 40] | 100 to 400 nM |
| Cn1cc(S(=O)(=O)N[C@H]2CC3=C(c4ccn(C(F)F)n4)[C@H](c4ccc(F)cc4Cl)N=C(c4nccs4)N3C2)cn1 [Example 404] | < 100 nM |
| ONC[C@@]1(O)CC2=C(c3ccn(C(F)F)n3)[C@H](c3ccc(F)cc3Cl)N=C(c3nccs3)N2C1 [Example 122] | > 400 nM |
| O=C(O)Cc1ccccc1S(=O)(=O)N[C@H]1CC2=C(c3ccn(C(F)F)n3)[C@H](c3ccc(F)cc3Cl)N=C(c3nccs3)N2C1 [Example 32] | 100 to 400 nM |
| O=C(N[C@H]1CC2=C(c3ccn(C(F)F)n3)[C@H](c3ccc(F)cc3Cl)N=C(c3nccs3)N2C1)[C@@H]1CC1c1ccccn1 (relative stereo) [Example 312] | 100 to 400 nM |
| O=C(O)CCS(=O)(=O)N[C@H]1CC2=C(c3ccn(C(F)F)n3)[C@H](c3ccc(F)cc3Cl)N=C(c3nccs3)N2C1 [Example 10] | > 400 nM |
| O=C(O)c1cccc(S(=O)(=O)NC[C@]2(O)CC3=C(c4ccn(C(F)F)n4)[C@H](c4ccc(F)cc4Cl)N=C(c4nccs4)N3C2)c1 [Example 132] | > 400 nM |
| CC(C)[C@]1(O)CC[C@@H](c2ccc(S(=O)(=O)N[C@H]3CC4=C(c5ccn(C(F)F)n5)[C@H](c5ccc(F)cc5Cl)N=C(c5nccs5)N4C3)cc2)CC1 [Example 413] | < 100 nM |
| COC(=O)c1ccccc1S(=O)(=O)NC[C@@]1(F)CC2=C(c3ccn(C(F)F)n3)[C@H](c3ccc(F)cc3Cl)N=C(c3nccs3)N2C1 [Example 188] | > 400 nM |
| O=C(N[C@H]1CC2=C(c3ccn(C(F)F)n3)[C@H](c3ccc(F)cc3Cl)N=C(c3nccs3)N2C1)N1CCC(O)(c2ccccc2)CC1 [Example 242] | 100 to 400 nM |
| O=C(N[C@H]1CC2=C(c3ccn(C(F)F)n3)[C@H](c3ccc(F)cc3Cl)N=C(c3nccs3)N2C1)N1CCC(O)(CO)CC1 [Example 241] | 100 to 400 nM |
| C=CCOC[C@@]1(O)CC2=C(c3ccn(C(F)F)n3)[C@H](c3ccc(F)cc3Cl)N=C(c3nccs3)N2C1 (single isomer, unassigned) [Example 109] | 100 to 400 nM |
| OC[C@]1(F)CC2=C(c3ccn(C(F)F)n3)[C@H](c3ccc(F)cc3Cl)N=C(c3nccs3)N2C1 [Example 165] | 100 to 400 nM |
| O=C(N[C@H]1CC2=C(c3ccn(C(F)F)n3)[C@H](c3ccc(F)cc3Cl)N=C(c3nccs3)N2C1)c1ncc(-c2ccccn2)s1 [Example 263] | 100 to 400 nM |
| O=S(=O)(NCc1ccccc1)N[C@H]1CC2=C(c3ccn(C(F)F)n3)[C@H](c3ccc(F)cc3Cl)N=C(c3nccs3)N2C1 [Example 305] | 100 to 400 nM |
| O=C(Cc1ccccn1)N[C@H]1CC2=C(c3ccn(C(F)F)n3)[C@H](c3ccc(F)cc3Cl)N=C(c3nccs3)N2C1 [Example 326] | 100 to 400 nM |
